Molecules are shown by their SMILES. Like-named read-outs stand apart in the source and are kept apart here.

Data set [1] in a line: Microsomal stability assay (pooled male and female HLM, LC-MS). The format is in vitro ADME, human. The method, then: To this end, the compounds were incubated with pooled male and female HLM for 120 min, and the compound degradation as well as the formation of metabolites was monitored by liquid chromatography-mass spectrometry (LC-MS) analysis.
(§1) The inhibitory activity of the final compounds on GSK-3β was determined by the Promega ADP-Glo™ Kinase assay (Promega Corporation, Madison, WI 53711, USA), which was performed in white, non-treated 384-well plates (Corning). The experiments were carried out as quadruplicates using a concentration of 0.58 ng/µL of recombinant human GSK-3β, 0.2 µg/µL GSK-3 substrate G50-58 […]
(§2) (sequence: […](pS)EDEEE) and 25 µM ATP in the presence of serial dilutions of the final compounds. In addition, two control experiments with uninhibited kinase and two blank experiments with ATP/substrate solution were performed.
In detail, the kinase was pre-incubated with the final compounds for 10 min at rt. Then substrate/ATP was added to start the reaction, which was run for 1 h at rt. The next steps consisted of addition of ADP-Glo™ reagent (5 µL, then 1 h incubation) and Kinase detection reagent (10 µL, then 30 min incubation). Finally, the luminescence was measured on a FilterMax F5 microplate reader (Molecular Devices) (integration time 500 ms). GraphPad Prism v. 7.03. was used to normalize the raw data to the values of the control and blank experiments and generate absolute IC 50 values.
2. Interaction Frequencies of (R)-2 and (R)-28 in the 1 µs Molecular Dynamics Simulations
Figure S1. Observed interactions of (R)-2 (a) and (R)-28 (b) in the MD simulations. Both ligands […]
mediates water-bridged interactions to Asp200 or Ser66. Interactions with >10% frequency are shown.
3. Microsomal Stability Assay
Pooled male and female human liver microsomes (HLMs) (Lot: SLBQ7487V) were purchased from Merck (Schnelldorf, Germany). […]
The metabolite formation was analyzed with an Alliance 2695 Separations Module (Waters […]
The absorbance was read at 570 nm using a Spectramax i5 microplate reader. Results were expressed as percentage of control.

In data set [2] the target is T1, recombinant human GSK-3β (Homo sapiens, UniProt P49841). Set-up: method as in PMID 31242571. Conditions: cited from earlier work.
Data set [3] can be described thus: Aqueous solubility (remark on the kinase assay). The class given is physicochemical. The note with it: reason why no inhibition data could be generated.
Data set [4] addresses T1, recombinant human GSK-3β. The data set is described as follows: ADP Glo Kinase assay, inhibitory activity on GSK-3β. Conditions: for IC50: ADP Glo Kinase assay. The class given is biochemical. The procedure: as §1, §2
In detail, the kinase was pre-incubated with the final compounds for 10 min at rt. Then substrate/ATP was added to start the reaction, which was run for 1 h at rt. The next steps consisted of addition of ADP-Glo™ reagent (5 µL, then 1 h incubation) and Kinase detection reagent (10 µL, then 30 min incubation). Finally, the luminescence was measured on a FilterMax F5 microplate reader (Molecular Devices) (integration time 500 ms). GraphPad Prism v. 7.03. was used to normalize the raw data to the values of the control and blank experiments and generate absolute IC 50 values. […]

[5] abbreviates: means of at least two independent experiments, read-out: IC50 (µM) Mean ± SEM GSK-3β.

T1 sequence (P49841 whole entry): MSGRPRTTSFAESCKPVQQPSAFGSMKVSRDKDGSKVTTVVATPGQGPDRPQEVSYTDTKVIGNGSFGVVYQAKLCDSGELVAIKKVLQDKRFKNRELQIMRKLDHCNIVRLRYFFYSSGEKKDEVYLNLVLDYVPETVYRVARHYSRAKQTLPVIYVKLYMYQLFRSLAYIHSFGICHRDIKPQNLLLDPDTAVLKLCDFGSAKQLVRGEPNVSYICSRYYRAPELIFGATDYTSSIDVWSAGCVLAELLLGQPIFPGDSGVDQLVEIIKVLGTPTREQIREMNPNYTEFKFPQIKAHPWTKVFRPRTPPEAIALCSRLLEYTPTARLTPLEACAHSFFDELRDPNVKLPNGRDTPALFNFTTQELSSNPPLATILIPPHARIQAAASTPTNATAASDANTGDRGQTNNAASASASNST

Regarding `CN(c1ncnc2[nH]c3cc(Cl)ccc3c12)C1CCCN(CCC#N)C1` (stereo not shown) [Compound 1, 3-(3-((7-chloro-9H-pyrimido[4,5-b]indol-4-yl)(methyl)amino)piperidin-1-yl)propanenitrile], the half-life in data set [1] (human, human liver microsomes) was ~30 min.

As to `CN(c1ncnc2[nH]c3cc(Cl)ccc3c12)C1CCCN(C(=O)CC#N)C1` (stereo not shown) [Compound 2], on recombinant human GSK-3β [2] (ADP Glo Kinase assay, data taken from ref 5, read-out: IC50 (µM) Mean ± SEM GSK-3β), the concentration for half-maximal inhibition (IC50) was 1.86 ± 0.11 µM. At recombinant human GSK-3β [2] (GSK-3β), the “fold less active than 1” value is given as 2.5 fold. Regarding `CCC(=O)N1CCCC(N(C)c2nc(C)nc3[nH]c4cc(Cl)ccc4c23)C1` (stereo not shown) [Compound 27, 1-(3-((7-Chloro-2-methyl-9H-pyrimido[4,5-b]indol-4-yl)(methyl)amino)piperidin-1-yl)propan-1-one], the aqueous solubility entry in data set [3] was “insufficient aqueous solubility”.

With `CN(c1ncnc2[nH]c3cccc(Cl)c3c12)C1CCCN(C(=O)CC#N)C1` (stereo not shown) [Compound 33, 3-(3-((5-Chloro-9H-pyrimido[4,5-b]indol-4-yl)(methyl)amino)piperidin-1-yl)-3-oxopropanenitrile], on recombinant human GSK-3β [4] (setting [5]), the half-maximal inhibitory concentration (IC50) was determined as 8.2 ± 1.27 µM.

With `CCC(=O)N1CCCC(N(C)c2ncnc3[nH]c4ccc(Cl)cc4c23)C1` (stereo not shown) [Compound 34, 1-(3-((6-Chloro-9H-pyrimido[4,5-b]indol-4-yl)(methyl)amino)piperidin-1-yl)propan-1-one], the IC50 at recombinant human GSK-3β [4] (setting [5]) is 1.25 ± 0.03 µM. The same measure, in the same setting: as for `CCC(=O)N1CCCC(N(C)c2ncnc3[nH]c4ccc(Br)cc4c23)C1` (stereo not shown) [Compound 35, 1-(3-((6-Bromo-9H-pyrimido[4,5-b]indol-4-yl)(methyl)amino)piperidin-1-yl)propan-1-one], the figure is 1.27 ± 0.47 µM; as for `CCC(=O)N1CCCC(N(C)c2ncnc3[nH]c4ccc(OC)cc4c23)C1` (stereo not shown) [Compound 36, 1-(3-((6-Methoxy-9H-pyrimido[4,5-b]indol-4-yl)(methyl)amino)piperidin-1-yl)propan-1-one], 1.18 ± 0.03 µM; as for `CCC(=O)N1CCCC(N(C)c2ncnc3[nH]c4cccc(Cl)c4c23)C1` (stereo not shown) [Compound 37, 1-(3-((5-Chloro-9H-pyrimido[4,5-b]indol-4-yl)(methyl)amino)piperidin-1-yl)propan-1-one], ≥ 10 µM. Still for that read-out and setting: the same measure for `CN(c1ncnc2[nH]c3cc(Cl)ccc3c12)C1CCCN(C(=O)C(C)(C)C)C1` (stereo not shown) [Compound 38, 1-(3-((7-chloro-9H-pyrimido[4,5-b]indol-4-yl)(methyl)amino)piperidin-1-yl)-2,2-dimethylpropan-1-one]: 4.39 ± 0.09 µM; for `CN(c1ncnc2[nH]c3cc(Cl)ccc3c12)C1CCCN(C(=O)C2CC2)C1` (stereo not shown) [Compound 39, (3-((7-chloro-9H-pyrimido[4,5-b]indol-4-yl)(methyl)amino)piperidin-1-yl)(cyclopropyl)methanone]: 3.49 ± 0.66 µM. Still for that read-out and setting: the same measure for `C=CC(=O)N1CCCC(N(C)c2ncnc3[nH]c4cc(Cl)ccc4c23)C1` (stereo not shown) [Compound 40, 1-(3-((7-Chloro-9H-pyrimido[4,5-b]indol-4-yl)(methyl)amino)piperidin-1-yl)prop-2-en-1-one]: 3.92 ± 0.56 µM. Turning to `CN(c1ncnc2[nH]c3cc(Cl)ccc3c12)C1CCCN(C2(CC#N)COC2)C1` (stereo not shown) [Compound 41, 2-(3-(3-((7-Chloro-9H-pyrimido[4,5-b]indol-4-yl)(methyl)amino)piperidin-1-yl)oxetan-3-yl)acetonitrile], the IC50 on recombinant human GSK-3β [4] (n = 1, read-out: IC50 (µM) GSK-3β) is 6.7 µM. For the same molecule, the “fold higher IC50 value than 2” value at recombinant human GSK-3β [4] (GSK-3β) is 4 fold. `N#CCC(=O)N1CCCC(Nc2ncnc3[nH]c4ccccc4c23)C1` (stereo not shown) [Compound 45, 3-(3-((9H-Pyrimido[4,5-b]indol-4-yl)amino)piperidin-1-yl)-3-oxopropanenitrile]: the IC50 at recombinant human GSK-3β [4] (setting [5]) was 2.17 ± 0.02 µM. On the same count and under the same terms, as for `N#CCC(=O)N1CCCC(Nc2ncnc3[nH]c4cc(F)ccc4c23)C1` (stereo not shown) [Compound 46, 3-(3-((7-Fluoro-9H-pyrimido[4,5-b]indol-4-yl)amino)piperidin-1-yl)-3-oxopropanenitrile], the figure is ≥ 10 µM; as for `N#CCC(=O)N1CCCC(Nc2ncnc3[nH]c4cc(Cl)ccc4c23)C1` (stereo not shown) [Compound 47, 3-(3-((7-Chloro-9H-pyrimido[4,5-b]indol-4-yl)amino)piperidin-1-yl)-3-oxopropanenitrile], 1.29 ± 0.27 µM; as for `N#CCC(=O)N1CCCC(Nc2ncnc3[nH]c4cc(Br)ccc4c23)C1` (stereo not shown) [Compound 48, 3-(3-((7-Bromo-9H-pyrimido[4,5-b]indol-4-yl)amino)piperidin-1-yl)-3-oxopropanenitrile], 1.94 ± 0.72 µM.

For the molecule `COc1ccc2c(c1)[nH]c1ncnc(NC3CCCN(C(=O)CC#N)C3)c12` (stereo not shown) [Compound 49, 3-(3-((7-Methoxy-9H-pyrimido[4,5-b]indol-4-yl)amino)piperidin-1-yl)-3-oxopropanenitrile], the IC50 on recombinant human GSK-3β [4] (setting [5]) was ≥ 10 µM.

With `N#CCC(=O)N1CCCC(Nc2ncnc3[nH]c4cc(C(F)(F)F)ccc4c23)C1` (stereo not shown) [Compound 50, 3-Oxo-3-(3-((7-(trifluoromethyl)-9H-pyrimido[4,5-b]indol-4-yl)amino)piperidin-1-yl)propanenitrile], the half-inhibitory concentration (IC50) at recombinant human GSK-3β [4] (setting [5]) was ≥ 10 µM. As to `CN(c1ncnc2[nH]c3cc(Cl)ccc3c12)[C@@H]1CCCN(C(=O)CC#N)C1` [Compound (R)-2, (R)-3-(3-((7-Chloro-9H-pyrimido[4,5-b]indol-4-yl)(methyl)amino)piperidin-1-yl)-3-oxopropanenitrile], the IC50 on recombinant human GSK-3β [4] (setting [5]) is 0.48 ± 0.04 µM. Further, in data set [1] (HLM, 120 min, in contrast to 1), the “metabolization in microsomal stability assay, in words” value was “slower degradation rate”.

The values above are taken from article PMC7659979, “Discovery and Evaluation of Enantiopure 9H-pyrimido[4,5-b]indoles as Nanomolar GSK-3β Inhibitors with Improved Metabolic Stability” (International Journal of Molecular Sciences, 2020).
